Data as given in paper PMC10937574, “Modification of 4-(4-chlorothiophen-2-yl)thiazol-2-amine derivatives for the treatment of analgesia and inflammation: synthesis and in vitro, in vivo, and in silico studies” (Frontiers in Pharmacology, 2024).
Values joined by “and” are separate entries in the source; they are usually repeats but may differ in a detail not shown here. Identical values can stand only once. Like-named read-outs stand apart in the source and are kept apart here. Values belong to the compound of their own block, whether it stands above or below them.

Legend:
5-LOX enzyme = assay: 5-LOX activity (5-lipoxygenase inhibition, linoleic acid substrate, absorbance 234 nm); settings: read-out: IC50 ± SEM 5-LOX
[1] = tested on: leukotriene-induced paw edema; assay: Leukotriene-induced paw edema; format: in vivo, mouse; settings: for percentage inhibition of leukotriene-induced paw edema: 20 mg/kg
Protocol: (§1) It was done by injecting 10% DMSO, a Bradykinin inhibitor (HOE 140) at a dose of 1 mg/kg, a lipoxygenase inhibitor (montelukast) at a dose of 25 mg/kg, an antihistamine at a dose of 100 mg/kg, […], or a cyclooxygenase inhibitor (celecoxib) at a dose of 50 mg/kg.

[2] = tested on: prostaglandin E2-induced paw edema; assay: Prostaglandin E2-induced paw edema; format: in vivo, mouse
Protocol: It was done by injecting 10% DMSO, a Bradykinin inhibitor (HOE 140) at a dose of 1 mg/kg, a lipoxygenase inhibitor (montelukast) at a dose of 25 mg/kg, an antihistamine at a dose of 100 mg/kg, the tested compound at a dose of 100 mg/kg, or a cyclooxygenase inhibitor (celecoxib) at a dose of 50 mg/kg.

[3] = tested on: histamine-induced paw edema; assay: Histamine-induced paw edema; format: in vivo, mouse; settings: 20 mg/kg, at 3 h
[4] = tested on: carrageenan-induced paw edema; assay: Carrageenan-induced paw edema; format: in vivo, albino mice
[5] = tested on: bradykinin-induced paw edema; assay: Bradykinin-induced paw edema; format: in vivo, mouse; settings: 20 mg/kg, first hour
Protocol: as §1

Structure (SMILES): CC(C)(O)c1ccccc1CC[C@@H](SCC1(CC(=O)O)CC1)c1cccc(/C=C/c2ccc3ccc(Cl)cc3n2)c1 [montelukast, reference compound]
percentage reduction of leukotriene-induced paw edema ([1]; montelukast 25 mg/kg, fourth hour): 72.79 ± 1.10%

Structure (SMILES): Cc1ccc(-c2cc(C(F)(F)F)nn2-c2ccc(S(N)(=O)=O)cc2)cc1 [Celecoxib, reference compound]
reduction of prostaglandin E2-induced paw edema ([2]; celecoxib 50 mg/kg, 4th hour after inflammogen): 88%

Structure (SMILES): CCNc1nc(-c2cc(Cl)cs2)c(N2CCN(C)CC2)s1 [Compound 5c]
IC50 (5-LOX enzyme): 72.32 ± 0.11 µM

Structure (SMILES): CC(=O)Oc1ccccc1C(=O)O [Aspirin, reference compound]
Percent inhibition of paw edema ([4]; dose 50 mg/kg, 1 h): 48.52 ± 1.12 %
Percent inhibition of paw edema ([4]; dose 50 mg/kg, 2 h): 54.63 ± 1.47 %
Percent inhibition of paw edema ([4]; dose 50 mg/kg, 3 h): 55.22 ± 1.38 %
Percent inhibition of paw edema ([4]; dose 50 mg/kg, 4 h): 58.92 ± 1.95 %
Percent inhibition of paw edema ([4]; dose 50 mg/kg, 5 h): 59.60 ± 1.52 %
Percent inhibition of paw edema ([4]; dose 50 mg/kg, 5 h, listed as aspirin): 59.60%

Structure (SMILES): Nc1nc(-c2cc(Cl)cs2)c(N2CCNCC2)s1 [Compound 5a]
IC50 (5-LOX enzyme): 93.15 ± 0.07 µM

Now from value to compound, other results behind:

IC50 (5-LOX enzyme): 56.21 ± 0.15 µM
Structure (SMILES): CCNc1nc(-c2cc(Cl)cs2)c(Nc2ccccc2)s1 [Compound 5f]

IC50 (5-LOX enzyme): 98.26 ± 0.08 µM
Structure (SMILES): CCNc1nc(-c2cc(Cl)cs2)c(N2CCNCC2)s1 [Compound 5b]

IC50 (5-LOX enzyme): 83.11 ± 0.16 µM
Structure (SMILES): C#CCNc1nc(-c2cc(Cl)cs2)c(Nc2ccccc2)s1 [Compound 5g]

IC50 (5-LOX enzyme; listed as C00005): 38.45 ± 0.2 µM
Structure (SMILES): Clc1csc(-c2nc(NCc3ccccc3)sc2Nc2ccccc2)c1 [Compound 5e]
antihistaminic effect (suppression of histamine-induced paw edema) [3]: 35%
Percent inhibition of paw edema ([4]; dose 5 mg/kg, 1 h): 47.70 ± 1.68 %
Percent inhibition of paw edema ([4]; dose 5 mg/kg, 2 h): 51.47 ± 1.50 %
Percent inhibition of paw edema ([4]; dose 5 mg/kg, 3 h): 54.56 ± 1.34 %
Percent inhibition of paw edema ([4]; dose 5 mg/kg, 4 h): 53.35 ± 1.47 %
Percent inhibition of paw edema ([4]; dose 5 mg/kg, 5 h): 56.25 ± 1.65 %
Percent inhibition of paw edema ([4]; dose 10 mg/kg, 1 h): 52.36 ± 2.26 %
Percent inhibition of paw edema ([4]; dose 10 mg/kg, 2 h): 54.58 ± 2.58 %
Percent inhibition of paw edema ([4]; dose 10 mg/kg, 3 h): 57.59 ± 1.59 %
Percent inhibition of paw edema ([4]; dose 10 mg/kg, 4 h): 56.78 ± 2.66 %
Percent inhibition of paw edema ([4]; dose 10 mg/kg, 5 h): 62.65 ± 2.79 %
Percent inhibition of paw edema ([4]; dose 20 mg/kg, 1 h): 55.29% and 55.29 ± 1.04 %
Percent inhibition of paw edema ([4]; dose 20 mg/kg, 2 h): 57.39 ± 1.69 %
Percent inhibition of paw edema ([4]; dose 20 mg/kg, 3 h): 60.76 ± 2.68 %
Percent inhibition of paw edema ([4]; dose 20 mg/kg, 4 h): 59.08 ± 1.98 %
Percent inhibition of paw edema ([4]; dose 20 mg/kg, 5 h): 64.59% and 64.59 ± 1.49 %
inhibition of bradykinin-induced paw swelling [5]: 21.30%
percentage inhibition of leukotriene-induced paw edema ([1]; fourth hour): 69.84%

IC50 (5-LOX enzyme): 23.08 ± 0.18 µM
Structure (SMILES): CN1CCN(c2sc(NCc3ccccc3)nc2-c2cc(Cl)cs2)CC1 [Compound 5d]
antihistaminic effect (suppression of histamine-induced paw edema) [3]: 27.12%
Percent inhibition of paw edema ([4]; dose 5 mg/kg, 1 h): 45.47 ± 1.11%
Percent inhibition of paw edema ([4]; dose 5 mg/kg, 2 h): 48.10 ± 1.42 %
Percent inhibition of paw edema ([4]; dose 10 mg/kg, 1 h): 49.68 ± 1.44%
Percent inhibition of paw edema ([4]; dose 20 mg/kg, 5 h): 61.64 ± 1.10%
inhibition of bradykinin-induced paw swelling [5]: 9.20%
inhibition of prostaglandin E2-induced paw edema ([2]; 20 mg/kg, fourth hour): 76.56 ± 0.58
percentage inhibition of leukotriene-induced paw edema ([1]; fifth hour (fifth of five values)): 59.90 ± 0.68%
percentage inhibition of leukotriene-induced paw edema ([1]; first hour (first of five values)): 51.80 ± 0.58%
percentage inhibition of leukotriene-induced paw edema ([1]; fourth hour): 64.56 ± 0.78%
percentage inhibition of leukotriene-induced paw edema ([1]; second hour (second of five values)): 55.90 ± 0.66%
percentage inhibition of leukotriene-induced paw edema ([1]; third hour (third of five values)): 59.46 ± 0.52%
